US9289456B2 (priority 2010, dated 2016)
Several values for one entry are separate records, joined by “and”; a condition that tells them apart may be missing. Equal entries are not always repeated. Where two headings read alike, the source gives them in different places. Marks after values point to notes of the source that are not given here.

How the values were obtained:
VSV-GFP [1] = type: cell-based, Vesicular Stomatitis Virus
VSV-GFP [2] = experiment: microbe, parasite or virus in culture; type: cell-based, Vesicular Stomatitis Virus
Rae1 = experiment: cells; type: cell-based; conditions: Homo sapiens, HeLa, 24 hrs, read-out: Rae1 protein level, % of control
Nup98 = experiment: cells; type: cell-based; conditions: Homo sapiens, HeLa, 24 hrs, read-out: Nup98 protein level, % of control
Flotillin-1 = experiment: cells; type: cell-based, human
MxA = type: cell-based, human; conditions: 24 hrs

## CC[C@H](C)C(=O)O[C@H]1C[C@@H](C)C=C2C=C[C@H](C)[C@H](CC[C@@H]3C[C@@H](O)CC(=O)O3)[C@H]21 [lovastatin]
HeLa cells
  Cell survival: ~30%
  Toxicity to HeLa cells: highly toxic

## CC[C@H](C)C(=O)O[C@H]1C[C@H](O)C=C2C=C[C@H](C)[C@H](CC[C@@H](O)C[C@@H](O)CC(=O)O)[C@H]21 [pravastatin]
HeLa cells
  Cell death rate, slope d: −1.20 % cells/μM Prava
HeLa cells; human
  Cell death rate, slope c: −1.78 % cells/μM Prava

## CCC(C)(C)C(=O)O[C@H]1C[C@@H](C)C=C2C=C[C@H](C)[C@H](CC[C@@H]3C[C@@H](O)CC(=O)O3)[C@H]21 [simvastatin]
VSV-GFP [1]
  Pretreatment time required to inhibit VSV protein levels: ≥ 4 h
VSV-GFP [2]
  Decrease of pfu in log-units: 2 log-units
  Fold lower pfu than control VSV-infected cells: 660 fold
  Pfu values (viral titer of supernatant): 1.80×10^4 (+/−3×10^3) pfu/ml
VSV-GFP [2]; Vesicular stomatitis virus, HeLa, read-out: Concentration needed for reduction of pfu values to half of control (IC50)
  IC50: 278 nM
Rae1; 0.125 μM
  activity at 0.125 µM: 196%
Rae1; 0.5 μM
  activity at 0.5 µM: 310%
Rae1; 2.0 μM
  activity at 2 µM: 390%
Nup98; 0.125 μM
  activity at 0.125 µM: 180%
Nup98; 0.5 μM
  activity at 0.5 µM: 240%
Nup98; 2.0 μM
  activity at 2 µM: 260%
Flotillin-1; 0.125 µM
  Flotillin-1 levels, % of control: ~160% and ~100%
Flotillin-1; 0.5 µM
  Flotillin-1 levels, % of control: ~90%
Flotillin-1; Homo sapiens, HeLa, read-out: Flotillin-1 levels, % of control
  activity at 0.5 µM: ~75%
HeLa cells
  Cell death rate (Δ% cell death per ΔμM), slope b: −2.61 % cells/μM Sim
HeLa cells; 0.125-2 μM 8 hrs
  Slope a (m), relative trend of cell survival, FIG. 18: −6.54
  Slope b (m), relative trend of cell survival, FIG. 18: −10.46
HeLa cells; human
  Cell death rate (Δ% cell death per ΔμM), slope a: −1.63 % cells/μM Sim
MxA; 0.125 μM
  MxA protein levels: ~400%
MxA; 0.5 μM
  MxA protein levels: 650%
MxA; 2.0 μM
  MxA protein levels: 150%

## Methyl-β-cyclodextrin [MβCD]
VSV-GFP [1]
  VSV G protein level, % of VSV control infection: 150% and 195% and 247% and 182% and 210%
  VSV N/P protein level, % of VSV control infection: 153% and 220% and 150% and 275% and 147% and 162%
VSV-GFP [2]
  Attenuation of viral titers by pretreatment: attenuated
  Fold decrease of VSV titers: 160 fold
  VSV titer after pretreatment: 5.25×10^4 (+/1−5.5×10^3) pfu/ml
HeLa cells
  Cell survival: ~20%
  Toxicity to HeLa cells: highly toxic
